Biological target: T1, phosphorylated ZAP-70 (Homo sapiens, UniProt P43403)
T1 construct: endogenous in cells; host or cells: Jurkat cells (clone E6-1, ATCC TIB-152), pervanadate treated
T1 sequence (P43403 1-619): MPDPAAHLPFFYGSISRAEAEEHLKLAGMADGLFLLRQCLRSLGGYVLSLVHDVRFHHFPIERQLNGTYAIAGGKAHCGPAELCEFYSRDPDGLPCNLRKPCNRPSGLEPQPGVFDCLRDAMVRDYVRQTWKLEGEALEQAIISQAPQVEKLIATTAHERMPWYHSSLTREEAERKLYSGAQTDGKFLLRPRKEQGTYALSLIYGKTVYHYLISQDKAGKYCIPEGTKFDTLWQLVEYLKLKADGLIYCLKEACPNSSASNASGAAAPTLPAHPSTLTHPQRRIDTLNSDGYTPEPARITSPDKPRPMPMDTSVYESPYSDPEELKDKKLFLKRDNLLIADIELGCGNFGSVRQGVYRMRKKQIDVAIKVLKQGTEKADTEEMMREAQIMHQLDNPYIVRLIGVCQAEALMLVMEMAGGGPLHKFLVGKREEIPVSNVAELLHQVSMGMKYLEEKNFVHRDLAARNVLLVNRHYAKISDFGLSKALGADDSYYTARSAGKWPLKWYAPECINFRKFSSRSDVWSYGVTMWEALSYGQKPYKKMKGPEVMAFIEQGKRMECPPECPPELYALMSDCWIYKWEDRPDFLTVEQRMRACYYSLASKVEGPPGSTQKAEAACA
Assay: Drug pulldown with immobilized aminopyrido-pyrimidin ligand 24 and Western blot analysis
Format: binding
Conditions: lysates of non-treated versus pervanadate treated Jurkat cells; Western blot, FIG. 2
Protocol: As biological material cell lysates prepared from non-treated or pervanadate treated Jurkat cells were used. The drug pulldown experiment was performed as described in Example 2 with lysate samples containing 50 mg of protein. Input lysate, flowthrough (non-bound fraction) and SDS-eluates (bound fraction) were separated on a SDS-polyacrylamide gel and transferred to a membrane. The blot was probed first with a general anti-ZAP-70 antibody (2A) and then with an antiphospho-ZAP-70 antibody (2B). Secondary detection antibodies were labeled with fluorescent dyes for detection with the Odyssey infrared imaging system. […]
For Western blot analysis bound proteins were eluted from the affinity matrix and subsequently separated by SDS-Polyacrylamide gel electrophoresis. ZAP-70 was detected with a general monoclonal antibody binding to the non-phosphorylated aminoterminal part of the protein and in addition with a phospho-specific antibody (FIG. 2). […]
Jurkat cells were homogenized in a Potter S homogenizer in lysis buffer: 50 mM Tris-HCl, 0.8% NP40, 5% glycerol, 150 mM NaCl, 1.5 mM MgCl2, 25 mM NaF, 1 mM sodium vanadate, 1 mM DTT, pH 7.5. […] The supernatant was transferred again to a fresh 50 ml falcon tube, the protein concentration was determined by a Bradford assay (BioRad) and samples containing 50 mg of protein per aliquot were prepared. […]

SMILES: Cn1c(=O)c(-c2c(Cl)cccc2Cl)cc2cnc(Nc3ccc(CN)cc3)cc21 [aminopyrido-pyrimidin ligand 24, 7-(4-Aminomethyl-phenylamino)-3-(2,6-dichloro-phenyl)-1-methyl-1H-[1,6]naphthyridin-2-one]
- pulldown of ZAP-70 by the immobilized ligand: preferentially pulls down a phosphorylated form of ZAP-70

Reference: patent US20120178180A1, “METHODS FOR THE IDENTIFICATION OF ZAP-70 INTERACTING MOLECULES AND FOR THE PURIFICATION OF ZAP-70” (priority 2006, published 2012)
